In article PMC9571433, “Design, Synthesis, Anti-Varicella-Zoster and Antimicrobial Activity of (Isoxazolidin-3-yl)Phosphonate Conjugates of N1-Functionalised Quinazoline-2,4-Diones” (Molecules, 2022):
Converted amounts (≈) assume the structure as drawn. Read-outs that look alike come from different tables or passages of the source.

Key:
P. aeruginosa ATCC 27853 = experiment: Broth microdilution MIC/MBC; details: Pseudomonas aeruginosa, ATCC27853, 24 h, read-out: MIC = MBC
C. albicans ATCC 10241 = experiment: Broth microdilution MIC/MBC (antifungal); details: Candida albicans
[1] = system: A. brasiliensis ATCC 16404; experiment: Broth microdilution MIC/MBC (antifungal); details: Aspergillus brasiliensis
[2] = system: human embryonic lung (HEL) cells; details: minimum cytotoxic concentration causing microscopically detectable alteration of cell morphology
B. cereus PCM 1948 = experiment: Broth microdilution MIC/MBC; details: Bacillus cereus
E. faecalis ATCC 29212 = experiment: Broth microdilution MIC/MBC; details: Enterococcus faecalis, ATCC29212, 24 h
TK+ VZV OKA strain = experiment: microbe, parasite or virus in culture; format: cell-based, varicella-zoster virus; details: Human alphaherpesvirus 3, HEL, read-out: Antiviral Activity EC50 TK+ VZV Strain (OKA)
S. aureus ATCC 2593 = experiment: Broth microdilution MIC/MBC; details: Staphylococcus aureus, ATCC2593, 24 h, read-out: MIC = MBC
TK– VZV 07-1 strain = experiment: microbe, parasite or virus in culture; format: cell-based, varicella-zoster virus; details: Human alphaherpesvirus 3, HEL, read-out: Antiviral Activity EC50 TK– VZV Strain (07-1)
E. coli ATCC 25922 = experiment: Broth microdilution MIC/MBC; details: Escherichia coli
feline herpes viruses = system: feline herpes viruses; parameters: method as in PMID 24906510, PMID 28763115, PMID 24219992; details: read-out: EC50 toward feline herpes viruses; cited from earlier work
[3] = ATCC16404, 72 h, read-out: MIC = MBC
[4] = PCM1948, 24 h, read-out: MIC = MBC
[5] = ATCC25922, 24 h, read-out: MIC = MBC

| SMILES | MIC (P. aeruginosa ATCC 27853) [µg/mL] | MIC (C. albicans ATCC 10241; ATCC10241, read-out: MIC = MBC) [µg/mL] | MIC [1, 3] [µg/mL] | Cytotoxicity Cell Morphology MCC [2] [μM] | MIC (B. cereus PCM 1948; [4]) [µg/mL] | MBC (E. faecalis ATCC 29212) [µg/mL] | MIC (E. faecalis ATCC 29212) [µg/mL] | EC50 (TK+ VZV OKA strain) [µM] | MIC (S. aureus ATCC 2593) [µg/mL] | EC50 (TK– VZV 07-1 strain) [µM] | MIC (E. coli ATCC 25922; [5]) [µg/mL] | MIC (E. coli ATCC 25922; ATCC25922) [µg/mL] | MIC (B. cereus PCM 1948; PCM1948) [µg/mL] | MBC (C. albicans ATCC 10241; ATCC10241) [µg/mL] | MIC (C. albicans ATCC 10241; ATCC10241) [µg/mL] | MBC ([1]; ATCC16404) [µg/mL] | MIC ([1]; ATCC16404) [µg/mL] | EC50 (feline herpes viruses) [µM] |
| --- | --- | --- | --- | --- | --- | --- | --- | --- | --- | --- | --- | --- | --- | --- | --- | --- | --- | --- |
| CCOP(=O)(OCC)[C@H]1C[C@H](Cn2c(=O)c3ccccc3n(Cc3ccccc3)c2=O)ON1Cc1ccccc1 (relative stereo) [Diethyl trans-(2-benzyl-5-((1-benzyl-2,4-dioxo-1,4-dihydroquinazolin-3(2H)-yl)methyl)isoxazolidin-3-yl)phosphonate] | 2500 (≈ 4.44 mM) | 5000 (≈ 8.87 mM) | 5000 (≈ 8.87 mM) | 100 | 1250 (≈ 2.22 mM) | > 5000 | > 5000 | 14.5 | 5000 (≈ 8.87 mM) | 34.2 | 2500 (≈ 4.44 mM) |  |  |  |  |  |  |  |
| CCOP(=O)(OCC)[C@H]1C[C@H](Cn2c(=O)c3ccccc3n(Cc3ccccc3F)c2=O)ON1C (relative stereo) [Diethyl trans-(5-((1-(2-fluorobenzyl)-2,4-dioxo-1,4-dihydroquinazolin-3(2H)-yl)methyl)-2-methylisoxazolidin-3-yl)phosphonate] | 2500 (≈ 4.95 mM) | 2500 (≈ 4.95 mM) | 5000 (≈ 9.89 mM) | >100 | 1250 (≈ 2.47 mM) | > 5000 | > 5000 | 31.7 | 5000 (≈ 9.89 mM) | 58.5 | 2500 (≈ 4.95 mM) |  |  |  |  |  |  |  |
| CCOP(=O)(OCC)[C@H]1C[C@H](Cn2c(=O)c3ccccc3n(Cc3ccc(F)cc3)c2=O)ON1C (relative stereo) [Diethyl trans-(5-((1-(4-fluorobenzyl)-2,4-dioxo-1,4-dihydroquinazolin-3(2H)-yl)methyl)-2-methylisoxazolidin-3-yl)phosphonate] | 2500 (≈ 4.95 mM) | 2500 (≈ 4.95 mM) | 5000 (≈ 9.89 mM) | >100 | 1250 (≈ 2.47 mM) | > 5000 | > 5000 | 58.5 | 5000 (≈ 9.89 mM) | 38.1 | 2500 (≈ 4.95 mM) |  |  |  |  |  |  |  |
| C=CCn1c(=O)c2ccccc2n(Cc2ccccc2)c1=O [24a, 3-Allyl-1-benzylquinazoline-2,4-dione] | 2500 (≈ 8.55 mM) | 5000 (≈ 17.1 mM) | 5000 (≈ 17.1 mM) | >100 | 5000 (≈ 17.1 mM) | > 5000 | > 5000 | 100 | 5000 (≈ 17.1 mM) | 100 | 2500 (≈ 8.55 mM) |  |  |  |  |  |  |  |
| C=CCn1c(=O)c2ccccc2n(Cc2ccccc2F)c1=O [24b, 3-Allyl-1-(2-fluorobenzyl)quinazoline-2,4-dione] | 2500 (≈ 8.06 mM) | 5000 (≈ 16.1 mM) | 5000 (≈ 16.1 mM) | >100 | 2500 (≈ 8.06 mM) | > 5000 | > 5000 | > 100 | 5000 (≈ 16.1 mM) | 64.5 | 2500 (≈ 8.06 mM) |  |  |  |  |  |  |  |
| C=CCn1c(=O)c2ccccc2n(Cc2cccc(F)c2)c1=O [24c, 3-Allyl-1-(3-fluorobenzyl)quinazoline-2,4-dione] | 2500 (≈ 8.06 mM) | 2500 (≈ 8.06 mM) | 5000 (≈ 16.1 mM) | >100 | 5000 (≈ 16.1 mM) | > 5000 | > 5000 | > 100 | 5000 (≈ 16.1 mM) | > 100 | 1250 (≈ 4.03 mM) | 1250 (≈ 4.03 mM) |  |  |  |  |  |  |
| C=CCn1c(=O)c2ccccc2n(Cc2ccc(F)cc2)c1=O [24d, 3-Allyl-1-(4-fluorobenzyl)quinazoline-2,4-dione] | 2500 (≈ 8.06 mM) | 2500 (≈ 8.06 mM) | 5000 (≈ 16.1 mM) | 100 | 5000 (≈ 16.1 mM) | > 5000 | > 5000 | 54.7 | 5000 (≈ 16.1 mM) | > 20 | 2500 (≈ 8.06 mM) |  |  |  |  |  |  |  |
| NCC[C@H](O)C(=O)N[C@@H]1C[C@H](N)[C@@H](O[C@H]2O[C@H](CN)[C@@H](O)[C@H](O)[C@H]2O)[C@H](O)[C@H]1O[C@H]1O[C@H](CO)[C@@H](O)[C@H](N)[C@H]1O [Amikacin, reference compound] | 20 (≈ 0.0342 mM) |  |  |  | 20 (≈ 0.0342 mM) |  | 0.625 (≈ 0.00107 mM) |  | 1 (≈ 0.00171 mM) |  | 0.625 (≈ 0.00107 mM) |  | 20 (≈ 0.0342 mM) |  |  |  |  |  |
| O=c1[nH]c(=O)n([C@H]2C[C@H](O)[C@@H](CO)O2)cc1/C=C/Br [Brivudin, reference compound] |  |  |  | >300 |  |  |  | 0.026 |  | 12 |  |  |  |  |  |  |  |  |
| CCOP(=O)(OCC)C1CC(Cn2c(=O)c3ccccc3n(Cc3ccccc3F)c2=O)ON1Cc1ccccc1 (stereo not drawn) [Diethyl trans-(2-benzyl-5-((1-(2-fluorobenzyl)-2,4-dioxo-1,2-dihydroquinazolin-3(2H)-yl)methyl)isoxazolidin-3-yl)phosphonate] | 2500 (≈ 4.3 mM) | 2500 (≈ 4.3 mM) | 5000 (≈ 8.6 mM) | 100 | 1250 (≈ 2.15 mM) | > 5000 | > 5000 | 12.6 | 5000 (≈ 8.6 mM) | 27.6 | 2500 (≈ 4.3 mM) |  |  |  |  |  |  |  |
| CCOP(=O)(OCC)C1CC(Cn2c(=O)c3ccccc3n(Cc3cccc(F)c3)c2=O)ON1Cc1ccccc1 (stereo not drawn) [Diethyl trans-(2-benzyl-5-((1-(3-fluorobenzyl)-2,4-dioxo-1,2-dihydroquinazolin-3(2H)-yl)methyl)isoxazolidin-3-yl)phosphonate] | 2500 (≈ 4.3 mM) | 2500 (≈ 4.3 mM) | 5000 (≈ 8.6 mM) | 20 | 2500 (≈ 4.3 mM) | > 5000 | > 5000 | 20 | 5000 (≈ 8.6 mM) | 14.5 | 1250 (≈ 2.15 mM) | 1250 (≈ 2.15 mM) |  |  |  |  |  |  |
| CCOP(=O)(OCC)C1CC(Cn2c(=O)c3ccccc3n(Cc3ccc(F)cc3)c2=O)ON1Cc1ccccc1 (stereo not drawn) [Diethyl trans-(2-benzyl-5-((1-(4-fluorobenzyl)-2,4-dioxo-1,2-dihydroquinazolin-3(2H)-yl)methyl)isoxazolidin-3-yl)phosphonate] | 2500 (≈ 4.3 mM) | 2500 (≈ 4.3 mM) | 5000 (≈ 8.6 mM) | 100 | 1250 (≈ 2.15 mM) | > 5000 | > 5000 | 20 | 5000 (≈ 8.6 mM) | 20 | 1250 (≈ 2.15 mM) | 1250 (≈ 2.15 mM) |  |  |  |  |  |  |
| OC(Cn1cncn1)(Cn1cncn1)c1ccc(F)cc1F [Fluconazole, reference compound] |  |  |  |  |  |  |  |  |  |  |  |  |  | > 5 | 5 (≈ 0.0163 mM) | > 5 | 5 (≈ 0.0163 mM) |  |
| CCOP(=O)(OCC)C1CC(Cn2c(=O)c3ccccc3n(Cc3ccccc3)c2=O)ON1C (stereo not drawn) [cis-20a/trans-20a (10:90), Diethyl trans-5-((1-benzyl-2,4-dioxo-1,4-dihydroquinazolin-3(2H)-yl)methyl)-2-methylisoxazolidin-3-yl)phosphonate] | 2500 (≈ 5.13 mM) | 2500 (≈ 5.13 mM) | 5000 (≈ 10.3 mM) | >100 | 1250 (≈ 2.56 mM) | > 5000 | > 5000 | 31.7 | 2500 (≈ 5.13 mM) | 100 | 1250 (≈ 2.56 mM) | 1250 (≈ 2.56 mM) |  |  |  |  |  |  |
| CCOP(=O)(CCCn1cc(Cn2c(=O)n(C(=O)c3ccccc3)c(=O)c3ccccc32)nn1)OCC [compound 7] |  |  |  |  |  |  |  |  |  |  |  |  |  |  |  |  |  | 4 |
| O=C(c1ccccc1)n1c(=O)c2ccccc2n(Cc2cn(C[C@H](OCc3ccccc3)[C@H](O)P(=O)(OCc3ccccc3)OCc3ccccc3)nn2)c1=O [compound 8] |  |  |  |  |  |  |  |  |  |  |  |  |  |  |  |  |  | 24 |
